Reference: patent US20190169218A1, “AMPHIPATHIC COMPOUND HAVING NOVEL PENTA-SACCHARIDE HYDROPHILIC GROUP AND USE THEREOF” (Industry-University Cooperation Foundation Hanyang …, priority 2016, published 2019)

Key:
[1] = hydrodynamic radius of micelles by dynamic light scattering (DLS); type: physicochemical; details: compound at 1.0 wt %
Method in brief: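 Micelle hydrodynamic radius (Rh) was measured by dynamic light scattering with each amphiphile at 1.0 wt %.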

[2] = target: T1, boron transporter (BOR1) BOR1-GFP fusion protein (Arabidopsis thaliana, UniProt Q8VYR7); test: structural (thermal) stability of solubilized BOR1-GFP by fluorescence-based size exclusion chromatography (FSEC); details: for structural stability of solubilized BOR1-GFP after heating (RFU, FSEC): heated at 40° C. for 10 minutes, 1 wt % compound
T1 construct: made in house; host or cells: Saccharomyces cerevisiae FGY217
Experimental: The ability of PSAs or PSEs to stabilize the structure of boron transporter (BOR1) was measured in an aqueous solution. That is, the BOR1 protein solubilized in each amphipathic compound was denatured by heating, and then structural stability of BOR1 was measured using fluorescence-based size exclusion chromatography (FSEC).
Specifically, Arabidopsis thaliana-derived BOR1 was expressed in the form of a fusion protein having a GFP tag at the C-terminus in Saccharomyces cerevisiae FGY217 cells. The cells were grown in an URA-medium supplemented with 0.1% glucose. 2% galactose was added to the cell culture to induce protein expression and the cells were cultured at 20° C. for 18 hours (see Drew, D. et al., Nat. Protoc. 2008, 3, 784-798.). After culture, the cells were harvested and used to obtain the cell membranes (see Leung, J. et al., Protein Expr. Purif. 2010, 72, 139-146.). Membranes containing BOR1-GFP fusion proteins were diluted to a final total protein concentration of 2.8 mg/mL in PBS (pH7.4) supplemented with 1 wt % DDM, 1 wt % PSAs (PSA-C9, PSA-C10 or PSA-C11) or 1 wt % PSEs (PSE-C9, PSE-C11 or PSE-C13). The diluted samples were incubated at 4° C. for 1 hour with gentle shaking, and insoluble substances were removed by centrifugation at 14,000 g for 1 hour at 4° C. Supernatants containing the dissolved protein samples were incubated for 10 minutes at the specified temperature (35, 40, 45 or 50° C.), and strongly agglutinated proteins were removed by centrifugation at 14,000 g for 10 minutes at 4° C. 200 μL aliquots were taken from the supernatant and injected into a Superose 6 10/300 column equilibrated with 20 mM Tris-HCl (pH 7.5), 150 mM NaCl and 0.03% DDM. Each elution fraction was collected from a retention volume of 6.4 mL (i.e., after 6.4 mL of solution had passed), and added to a well of a clear bottom 96-well plate at a volume of 200 μL. GFP fluorescence generated in each fraction was measured using an excitation wavelength of 470 nm and an emission wavelength of 512 nm.

[3] = target: T2, Salmonella typhimurium melibiose permease (MelB) (Salmonella typhimurium, UniProt P30878); test: MelB extraction efficiency and thermal stability by SDS-PAGE and western immunoblotting; details: 1.5 wt %; for MelB extraction efficiency: 0° C., 90 minutes (similar results at 45° C.); for solubilized MelB remaining in solution: 90 minutes
T2 construct: made in house; host or cells: DW2 cells (melB and lacZY), Salmonella typhimurium DW2; plasmid pK95AHB/WT MelBst/CH10
Experimental: The ability of PSAs or PSEs to extract (solubilize) MelBst (Salmonella typhimurium melibiose permease) proteins and stabilize the structures thereof was measured. MelB proteins were extracted using PSAs, PSEs or DDM, and the amount of the extracted proteins and structural stability thereof were quantitatively analyzed by SDS-PAGE and western immunoblotting. The protein extraction efficiency and thermally stabilizing ability of the amphipathic compounds were simultaneously evaluated by extracting MelB proteins at four temperatures (0, 45, 55 or 65° C.) for 90 minutes using the amphipathic compounds at a concentration of 1.5 wt %.
Specifically, according to the method described in the journal article (P. S. Chae, et al., Chemistry. 2013, 19, 15645-15651.) published by the present inventors, proteins (MelBst) were produced using a plasmid pK95AHB/WT MelBst/CH10 containing a gene construct encoding wild-type MelB having 10×His tags at the C-terminus and Salmonella typhimurium DW2 cells (melB and lacZY). According to the method described in the journal article (A. S. Ethayathulla et al., Nat. Commun. 2014, 5, 3009), cells were cultured and the cell membranes were obtained from the cultured cells. Protein analysis was performed using a Micro BCA kit (Thermo Scientific, Rockford, Ill.). To measure solubilization/stability, membrane samples (the final concentration of membrane proteins was 10 mg/mL) containing MelBst were mixed with a solubilization buffer solution (20 mM sodium phosphate, pH 7.5, 200 mM NaCl, 10% glycerol and 20 mM melibiose) containing DDM, PSAs (PSA-C11) or PSEs (PSE-C9, PSE-C11, PSE-C13) at a concentration of 1.5% (w/v). Extracts were incubated at four different temperatures (0, 45, 55 and 65° C.) for 90 minutes. Fractions were removed by ultracentrifugation at 355,590 g for 45 minutes using a Beckman Optima™ MAX ultracentrifuge equipped with a No. 4 TLA-100 rotor. 20 μg of proteins was separated using a 15% SDS-PAGE gel. Next, immunoblotting was performed using Penta-His-HRP antibodies (Qiagen, Germantown, Md.). After performing SDS-PAGE and immunoblotting, the amount of solubilized MelB was quantitated and expressed as a percentage of the amount of MelB measured in the control group.

[4] = target: T3, human β2 adrenergic receptor (β2AR) (Homo sapiens, UniProt P07550); test: negative staining electron microscopy (EM) of purified β2AR
T3 construct: Flag; made in house
Experimental: Electron microscopy (EM) analysis was performed on β2ARs solubilized in PSAs and PSEs.
Specifically, electron microscopy (EM) analysis was performed as follows. Samples were prepared using a conventional negative staining protocol (see Peisley, A. et al., G Protein-Coupled Receptors in Drug Discovery: Methods and Protocols, Methods in Molecular Biology, 1335, 29-38 (2015)). Briefly, 3 μL of β2ARs purified in DDM or the novel amphipathic compounds (PSA-C11, PSE-C11 and PSE-C13) was added into a glow-discharged carbon-coated grid by pipetting and stained with 1% (w/v) uranyl formate. Imaging was performed by operating a Morgagni 268 (D) transmission electron microscope (FEI Company) at 100 kV at room temperature. Images were recorded with an Orius SC200W CCD camera (Gatan Inc.) at a 30,416×magnification.

T2 sequence (P30878 whole entry): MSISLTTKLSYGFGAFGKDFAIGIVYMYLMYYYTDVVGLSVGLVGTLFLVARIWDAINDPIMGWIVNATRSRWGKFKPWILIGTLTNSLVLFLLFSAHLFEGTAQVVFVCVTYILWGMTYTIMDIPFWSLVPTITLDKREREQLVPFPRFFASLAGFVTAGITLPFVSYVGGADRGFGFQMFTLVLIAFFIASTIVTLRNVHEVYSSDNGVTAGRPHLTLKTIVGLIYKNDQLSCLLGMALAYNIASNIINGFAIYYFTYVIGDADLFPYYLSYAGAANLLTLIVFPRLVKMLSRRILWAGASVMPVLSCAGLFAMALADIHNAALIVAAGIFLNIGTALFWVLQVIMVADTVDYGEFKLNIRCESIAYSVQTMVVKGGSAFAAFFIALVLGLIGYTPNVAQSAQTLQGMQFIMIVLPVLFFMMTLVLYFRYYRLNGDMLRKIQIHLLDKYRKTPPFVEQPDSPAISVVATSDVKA
T3 sequence (P07550 whole entry): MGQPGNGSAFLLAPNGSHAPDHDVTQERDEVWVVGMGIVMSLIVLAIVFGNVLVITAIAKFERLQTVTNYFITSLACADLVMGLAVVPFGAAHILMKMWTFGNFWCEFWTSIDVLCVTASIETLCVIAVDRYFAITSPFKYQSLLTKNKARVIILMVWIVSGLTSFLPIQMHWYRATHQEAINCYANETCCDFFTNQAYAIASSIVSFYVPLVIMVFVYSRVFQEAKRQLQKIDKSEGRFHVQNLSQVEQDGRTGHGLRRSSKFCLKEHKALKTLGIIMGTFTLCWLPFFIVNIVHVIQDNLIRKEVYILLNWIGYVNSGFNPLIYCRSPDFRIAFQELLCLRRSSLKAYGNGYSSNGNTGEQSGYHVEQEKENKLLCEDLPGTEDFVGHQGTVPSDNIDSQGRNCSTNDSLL

| Compound | Rh (nm), hydrodynamic radius of micelles [1] | state of solubilized BOR1-GFP after heating ([2]; 40 or 45° C. for 10 minutes) | structural stability of solubilized BOR1-GFP after heating (RFU, FSEC) [2] | MelB extraction efficiency [3] | solubilized MelB remaining in solution ([3]; 55° C.) | solubilized MelB remaining in solution ([3]; 65° C.) | agglutinated proteins in negative staining EM images of β2AR [4] | state of solubilized BOR1-GFP after heating ([2]; 35° C. for 10 minutes) |
| --- | --- | --- | --- | --- | --- | --- | --- | --- |
| CCCCCCCCCCCOCC(COCCCCCCCCCCC)O[C@@H]1OC(CO[C@@H]2OC(CO)[C@@H](O)C(O)C2O)[C@@H](O[C@@H]2OC(CO)[C@@H](O)C(O)C2O)C(O[C@@H]2OC(CO)[C@@H](O)C(O)C2O)C1O[C@@H]1OC(CO)[C@@H](O)C(O)C1O (some centres unmarked) [PSE-C11] | 3.46 ± 0.05 nm | maintained monodispersibility | greatly improved compared to DDM | extracted at an efficiency similar to the efficiency observed in the case of DDM | remained dissolved in the solution | a small amount of dissolved MelB was observed | the agglutinated proteins were hardly observed | – |
| CCCCCCCCCCCC(CCCCCCCCCCC)CO[C@@H]1OC(CO[C@@H]2OC(CO)[C@@H](O)C(O)C2O)[C@@H](O[C@@H]2OC(CO)[C@@H](O)C(O)C2O)C(O[C@@H]2OC(CO)[C@@H](O)C(O)C2O)C1O[C@@H]1OC(CO)[C@@H](O)C(O)C1O (some centres unmarked) [PSA-C11] | 3.28 ± 0.03 nm | – | remarkably improved as compared to DDM and PSA-C9 | extracted at an efficiency similar to the efficiency observed in the case of DDM | remained dissolved in the solution | – | the agglutinated proteins were hardly observed | – |
| CCCCCCCCCCCCCOCC(COCCCCCCCCCCCCC)O[C@@H]1OC(CO[C@@H]2OC(CO)[C@@H](O)C(O)C2O)[C@@H](O[C@@H]2OC(CO)[C@@H](O)C(O)C2O)C(O[C@@H]2OC(CO)[C@@H](O)C(O)C2O)C1O[C@@H]1OC(CO)[C@@H](O)C(O)C1O (some centres unmarked) [PSE-C13] | 14.1 ± 0.24 nm | – | greatly improved compared to DDM | – | remained dissolved in the solution | – | the amount of the agglutinated proteins was small | – |
| CCCCCCCCCCCCO[C@@H]1O[C@H](CO)[C@@H](O[C@H]2O[C@H](CO)[C@@H](O)[C@H](O)[C@H]2O)[C@H](O)[C@H]1O [DDM, n-dodecyl-β-D-maltopyranoside, reference compound] | 3.4 ± 0.03 nm | complete denaturation/aggregation occurred | RFUs were relatively low due to denaturation after heating | – | disappeared in the solution | – | many agglutinated proteins were observed | retained the original state thereof |
| CCCCCCCCOCC(COCCCCCCCC)(COCCCCCCCC)CO[C@@H]1OC(CO[C@@H]2OC(CO)[C@@H](O)C(O)C2O)[C@@H](O[C@@H]2OC(CO)[C@@H](O)C(O)C2O)C(O[C@@H]2OC(CO)[C@@H](O)C(O)C2O)C1O[C@@H]1OC(CO)[C@@H](O)C(O)C1O (some centres unmarked) [TPS-E8] | 43.8 ± 16.3 nm | – | – | – | – | – | – | – |
